According to article PMC9221509, “Discovery of a Novel Antimicrobial Peptide, Temporin-PKE, from the Skin Secretion of Pelophylax kl. esculentus, and Evaluation of Its Structure-Activity Relationships” (Biomolecules, 2022):
≈ marks a conversion by molar mass, not a printed value. Read-outs that look alike come from different tables or passages of the source. Non-standard residues stand in square brackets, D forms with d. Residues, ends and D or L forms follow the SMILES beside them. No end group written: not given here.

Tests used:
[1] = tested on: S. aureus (ATCC 6538); assay: microbe, parasite or virus in culture; format: cell-based, Staphylococcus aureus; settings: for MBC: ATCC 6538, 18 h; for MIC: ATCC 6538, 24 h
Procedure: (§1) The antimicrobial activities of peptides were evaluated against the Gram-positive bacteria, S. aureus (ATCC 6538), methicillin-resistant Staphylococcus aureus (MRSA) (NCTC 12493), Enterococcus faecalis (E. faecalis) (NCTC 12697); the Gram-negative bacteria, E. coli (ATCC CRM 8739), Klebsiella pneumoniae (K. pneumoniae) (ATCC 43816), Pseudomonas aeruginosa (P. aeruginosa) (ATCC CRM 9027); and the yeast, Candida albicans (C. albicans) (ATCC CRM 10231). Clinical isolates of MRSA (B042 V2E1 A), E. coli (ATCC BAA-2340), K. pneumoniae (ATCC BAA-1705), and P. aeruginosa (B004 V2S2 B) were also used to determine their antimicrobial activities. The suspension of microorganisms in the logarithmic growth phase with a specific final density (Gram-negative and Gram-positive bacteria: 5 × 10^5 CFU/mL; yeast: 1 × 10^6 CFU/mL) was incubated with different peptide concentrations from 1 µM to 512 µM at 37 °C for 24 h. PBS was used as the negative control, and norfloxacin and amphotericin B were selected as the positive control for bacteria and yeast, respectively. Since the Norfloxacin had weak activities against P. aeruginosa (B004 V2S2 B) and K. pneumoniae (ATCC BAA 1705), gentamicin was used as the positive control for these two bacterial strains. The absorbance of each well was obtained using a microplate reader (EL808, Biolise BioTek, Winooski, VT, USA) set at 550 nm wavelength. The MIC value was the lowest concentration of a peptide that inhibits visible bacterial growth. Once the MIC values were determined, an aliquot from the bacterial culture exposed to the peptide at or above its MIC value was inoculated on a Mueller Hinton agar (MHA) and was incubated at 37 for 18 h. The MBC value was the lowest concentration of a peptide that kills 99.9% of bacteria.

[2] = tested on: horse red blood cells; format: cell-based
Procedure: As a previous study described in detail, the haemolysis activity assays of peptides were conducted on defibrinated horse blood (TCS Biosciences Ltd., Buckingham, UK) with an erythrocyte suspension concentration of 2% (v/v). The 120 μL of peptide solution in a gradient concentration ranging from 1µM to 512 µM was mixed with the same volume of 2% horse red blood cell suspension, and the complex was incubated at 37 °C for 2 h. PBS and 0.1% Triton X-100 were chosen as the negative and positive control, respectively. After centrifugation at 900× g for 5 min, the absorbance of the supernatant was analysed using a microplate reader (EL808, Biolise BioTek, Winooski, VT, USA) set to a wavelength of 570 nm. The equation to calculate the haemolysis of the peptides is shown below: Haemolysis (%)=A−An/Ap−An×100% where A represents the absorbance of each treatment group, An represents the average absorbance of the negative control group, and Ap represents the average absorbance of the positive control group.

[3] = tested on: HaCaT cells; format: cell-based, human; settings: 24 h
Procedure: The cytotoxicity of the peptides against the human epidermal keratinocyte line, HaCaT, was tested using the MTT cell viability assay as described in a previous study. The 100 µL of the cell suspension in a complete DMEM medium with a density of 10,000 cells/mL was seeded in a 96-well plate and incubated overnight at 37 °C in a humidified 5% CO2 atmosphere. After 4 h of starvation in a serum-free medium, 100 μL of serial dilutions (from 10^−9 M to 10^−4 M) of temporin-PKE and its analogues was added to each well, and the plate was incubated for 24 h. The serum-free medium and 0.1% Triton X-100 were used as the negative and positive control, respectively. Then, MTT solution, at a volume of 10 μL, was added to each well, and the plate was incubated for 2 h. After this, the medium was replaced by 100 μL of DMSO, and plates were put in the shaking incubator for 15 min. The absorbance of each well was measured using a microplate reader (EL808, Biolise BioTek, Winooski, VT, USA) set to a wavelength of 570 nm. The equation used to calculate the viability of the cells is shown below: Cell viability (%)=A−Ab/An−Ab×100% where A represents the absorbance of each treatment group, Ab represents the average absorbance of the wells in the blank control group (cells not exposed to the test peptide and MTT), and An represents the average absorbance of the wells in the negative control group (cells not exposed to the test peptide).

[4] = tested on: P. aeruginosa (ATCC CRM 9027); assay: microbe, parasite or virus in culture; format: cell-based, Pseudomonas aeruginosa; settings: for MBC: ATCC CRM 9027, 18 h; for MIC: ATCC CRM 9027, 24 h
Procedure: as §1

[5] = tested on: P. aeruginosa (B004 V2S2 B); assay: microbe, parasite or virus in culture; format: cell-based, Pseudomonas aeruginosa; settings: B004 V2S2 B; for MBC: 18 h; for MIC: 24 h
Procedure: as §1

[6] = tested on: C. albicans (ATCC CRM 10231); assay: organism not typed; format: cell-based, Candida albicans; settings: for MBC: ATCC CRM 10231, 18 h, read-out: MBC; for MIC: ATCC CRM 10231, 24 h, read-out: MIC
Procedure: as §1

[7] = tested on: E. faecalis (NCTC 12697); assay: microbe, parasite or virus in culture; format: cell-based, Enterococcus faecalis; settings: for MBC: NCTC 12697, 18 h; for MIC: NCTC 12697, 24 h
Procedure: as §1

[8] = tested on: E. coli (ATCC CRM 8739); assay: microbe, parasite or virus in culture; format: cell-based, Escherichia coli; settings: for MBC: ATCC CRM 8739, 18 h; for MIC: ATCC CRM 8739, 24 h
Procedure: as §1

[9] = tested on: E. coli (ATCC BAA-2340); assay: microbe, parasite or virus in culture; format: cell-based, Escherichia coli; settings: for MBC: ATCC BAA-2340, 18 h; for MIC: ATCC BAA-2340, 24 h
Procedure: as §1

[10] = tested on: wax moth larvae; assay: Toxicity in wax moth larvae (uninfected); format: in vivo, Galleria mellonella; settings: n = 9 in each group
Procedure: The antimicrobial activities of temporin-PKE and temporin-PKE-3K, in vivo, were studied in the wax moth larvae model. Wax moth larvae (Livefood UK Ltd., Rooks Bridge, UK), weighing 250 ± 25 mg, were divided into different groups (n = 9 in each group). […] After 2 h of exposure, 10 µL of peptide solution, with concentrations of 4, 8, and 16 mg/kg, was injected into the larvae in each group. PBS was utilised as the negative control, and 50 mg/kg vancomycin was selected as the positive control for MRSA. The survival rates of the larvae were recorded every 12 h for 120 h.

| Molecule | MBC [1] [µM] | MIC [1] [µM] | HC50 ([2]; red cells of horse, 2 h) [µM] | IC50 [3] [µM] | MBC ([4]; read-out: MBC) [µM] | MIC ([4]; read-out: MIC) [µM] | MBC ([5]; read-out: MBC) [µM] | MIC ([5]; read-out: MIC) [µM] | MBC [6] [µM] | MIC [6] [µM] | MBC [7] [µM] | MIC [7] [µM] | MBC ([8]; read-out: MBC) [µM] | MIC ([8]; read-out: MIC) [µM] | MBC ([9]; read-out: MBC) [µM] | MIC ([9]; read-out: MIC) [µM] | HC50 [2] [µM] | MBC [4] [µM] | MIC [4] [µM] | MBC [5] [µM] | other results |
| --- | --- | --- | --- | --- | --- | --- | --- | --- | --- | --- | --- | --- | --- | --- | --- | --- | --- | --- | --- | --- | --- |
| CC[C@@H](C)[C@@H](NC(=O)[C@H](CCCCN)NC(=O)[C@@H]1CCCN1C(=O)[C@H](CC(C)C)NC(=O)[C@H](CC(C)C)NC(=O)[C@H](CO)NC(=O)[C@H](CO)NC(=O)[C@H](CC(C)C)NC(=O)[C@H](C)NC(=O)CNC(=O)[C@@H](NC(=O)[C@@H](NC(=O)[C@H](CC(C)C)NC(=O)[C@@H]1CCCN1C(=O)[C@H](CC(C)C)NC(=O)[C@@H](N)Cc1ccccc1)[C@@H](C)CC)[C@@H](C)CC)C(=O)N[C@@H](Cc1ccccc1)C(N)=O [Temporin-PKE-i] (H-FLPLIIGALSSLLPK[dI]F-NH2) | 2 (≈ 3.68 µg/mL) | 2 (≈ 3.68 µg/mL) | 68.37 | 11.9 | >512 | >512 | >512 | >512 | >512 | >512 | 4 (≈ 7.37 µg/mL) | 4 (≈ 7.37 µg/mL) | >512 | >512 | >512 | >512 | – | – | – | – | – |
| FLPLIIGALSSLLPKIF-NH2 [Temporin-PKE] | 2 | 2 | 6.58 | 5.04 | >512 | >512 | >512 | >512 | >512 | >512 | 8 | 8 | >512 | >512 | >512 | >512 | 6.58 | – | – | – | mortality of larvae treated with peptide ([10]; highest test concentration, late stage): 50% |
| FLPLIIGALSSKLPKIF-NH2 [Temporin-PKE-K12] | 4 | 4 | 122.7 | 19 | – | – | – | – | >512 | >512 | 8 | 8 | – | – | – | – | 122.7 | 256 | 256 | 64 | MIC [5]: 64 µM; MBC [8]: 8 µM; MIC [8]: 8 µM; MBC [9]: 16 µM; MIC [9]: 16 µM |
| FLPKIIGKLSSLLPKIF-NH2 [Temporin-PKE-3K] | 2 | 2 | 87.47 | 29.6 | – | – | – | – | 64 | 32 | 2 | 2 | – | – | – | – | 87.47 | 16 | 16 | 8 | survival of larvae injected with peptide ([10]; doses of 16 mg/kg): totally survived; MIC [5]: 8 µM; MBC [8]: 2 µM; MIC [8]: 2 µM; MBC [9]: 2 µM; MIC [9]: 2 µM |
